How the values were obtained:
wild larvae zebrafish = assay: Behavior tracking of wild-type zebrafish larvae treated with GHSR-1a antagonist; type: in vivo; conditions: wild-type (AB) embryos treated from 6 hpf to 3 dpf; 0.08 uM/L YIL781 (FIG. 4)
Description: Zebrafish embryos (AB) were treated with different concentrations of YIL781 (0.08 uM, 0.4 uM, 2 uM, 10 uM, 50 uM) from 6 hpf to 3 dpf, and the behavior was detected by viewpoint behavioral recorder. The concrete scheme was as follows: [table]

ghrelin mutant zebrafish = assay: Behavior tracking of ghrelin mutant zebrafish larvae treated with methylphenidate; type: in vivo; conditions: ghrelin-/- embryos, 10 uM for 1 h at 3 dpf (FIG. 6)
Description: The embryos produced by ghrelin+/+, ghrelin−/− zebrafish intercross were treated with Methylphenidate at 72 hpf for 1 h. Pick a single hatched zebrafish larvae into a 96-well plate, behavior was tested as following table. After test, the genotype of the zebrafish larvae was identified by PCR and enzyme digestion.
The ghrelin^−/− embryos were treated with 10 uM methylphenidate for 1 h at 3 dpf, and the movement distance was measured by behavior recorder.

| Structure (SMILES) | activity phenotype of normal zebrafish larvae (behavioral recorder) (wild larvae zebrafish) | movement distance of ghrelin mutant after treatment (ghrelin mutant zebrafish) | movement distance of treated ghrelin mutant compared with the control group (ghrelin mutant zebrafish) |
| --- | --- | --- | --- |
| Cc1nc2ccc(Oc3ccc(F)cc3)cc2c(=O)n1C[C@H]1CCCN(C(C)C)C1 [YIL781] | induced normal zebrafish to produce a hyperactivity phenotype |  |  |
| COC(=O)C(c1ccccc1)C1CCCCN1 (stereo not drawn) [methylphenidate] |  | decreased its movement distance | no significantly different with the control group |

From patent US20180273598A1, “ADHD MARKER, APPLICATION THEREOF AND KIT” (WENZHOU KANGNING HOSPITAL CO., LTD., priority 2017, published 2018)
